# Columns and labels:
# Assay type in all cases: in vivo
# [1] = tested on: redroot pigweed (Amaranthus retroflexus, AMARE); assay: Pre-emerge test, greenhouse herbicide activity screening; conditions: pre-emerge, 14 days after application, rating scale 0-100
# Summary of the method: (§1)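 Visual ratings on a 0-100 scale (0 no damage, 100 all plants dead) were taken at 14 days after treatment. Rates of 15-1000 g ai/ha in acetone, 187 l/ha, were sprayed onto soil one day after planting (pre-emerge) or onto 2-3 leaf plants with 0.25% v/v surfactant (post-emerge).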
# [2] = tested on: barnyardgrass (Echinochloa crus-galli, ECHCG); assay: as above; conditions: pre-emerge, 14 days after application, rating scale 0-100
# Description: (§2) A standard greenhouse herbicide activity screening system was used to evaluate the herbicidal efficacy and crop safety of these test compounds. Seven broadleaf weed species including redroot pigweed (Amaranthus retroflexus, AMARE, velvetleaf (Abutilon theophrasti, ABUTH), sicklepod (Cassia obtusifolia, CASOB), ivyleaf morningglory (Ipomoea hederacea, IPOHE), lambsquarters (Chenopodium album, CHEAL), common ragweed (Ambrosia artemisizfolia L., AMBEL), and cocklebur (Xanthium strumarium, XANST) were used as test species. Four grass weed species including green foxtail (Setaria viridis, SETVI), barnyardgrass (Echinochloa crus-galli, ECHCG), johnsongrass (Sorghum halepense, SORHA), and large crabgrass (Digitaria sanguinalis, DIGSA) were also used. In addition, three crop species, field corn (Zea mays L., var. Dekalb 535, CORN), soybean (Glycine max L., var. Pella 86, SOY), and is upland rice (Oryza sp., var. Tebonnet, RICE) were included.
# (§3) All plants were grown in 10 cm square plastic pots which were filled with a sandy loam soil mix. For pre-emerge tests, seeds were planted one day prior to application of the test compounds. For post-emerge tests, seeds were planted 8-21 days prior to the test to allow emergence and good foliage development prior to application of the test substances. At the time of the post-emerge application, plants of all species were usually at the 2-3 leaf stage of development.
# (§4) All test compounds Were dissolved in acetone and applied to the test units in a volume of 187 l /ha. Test materials were applied at rates ranging from 15 g ai/ha to 1000 g ai/ha using a track sprayer equipped with a TJ8001E even flow flat fan spray nozzle. Plants were arranged on a shelf so that the top of the canopy (post-emerge) or top of the soil surface (pre-emerge) was 40-45 cm below the nozzle. Pressurized air was used to force the test solution through the nozzle as it was mechanically advanced (via electrically driven chain drive) over the top of all test plants/pots. This application simulates a typical commercial field herbicide application.
# (§5) In the post-emerge test, a commercial non-ionic surfactant was also included (0.25% v/v) to enhance wetting of the leaf surfaces of target plants. Immediately after application, test units of the pre-emerge applications were watered at the soil surface to incorporate the test materials. Subsequently, these test units were bottom-watered. Post-emerge test units were always bottom-watered.
# (§6) At 14 days after application of the test materials, phytotoxicity ratings were recorded. A rating scale of 0-100 was used as previously described in Research Methods in Weed Science, 2nd edition, B. Truelove, Ed., Southern Weed Science Society, Auburn University, Auburn, Ala. 1977. Briefly, “0” corresponds to no damage and “100” corresponds to complete death of all plants in the test unit. This scale was used both to determine efficacy against weed species and damage to crop species. Herbicide activity data for various compounds of this invention, which are shown by compound No. in Tables 1-8, are shown in Tables 11 and 12.
# [3] = tested on: green foxtail (Setaria viridis, SETVI); assay: as above; conditions: pre-emerge, 14 days after application, rating scale 0-100
# Description: as §2, §3, §4, §5, §6
# [4] = tested on: ivyleaf morningglory (Ipomoea hederacea, IPOHE); assay: as above; conditions: pre-emerge, 14 days after application, rating scale 0-100
# Description: as §2, §3, §4, §5, §6
# [5] = tested on: lambsquarters (Chenopodium album, CHEAL); assay: as above; conditions: pre-emerge, 14 days after application, rating scale 0-100
# Description: as §2, §3, §4, §5, §6
# [6] = tested on: large crabgrass (Digitaria sanguinalis, DIGSA); assay: as above; conditions: pre-emerge, 14 days after application, rating scale 0-100
# Description: as §2, §3, §4, §5, §6
# [7] = tested on: sicklepod (Cassia obtusifolia, CASOB); assay: as above; conditions: pre-emerge, 14 days after application, rating scale 0-100
# Description: as §2, §3, §4, §5, §6
# [8] = tested on: velvetleaf (Abutilon theophrasti, ABUTH); assay: as above; conditions: pre-emerge, 14 days after application, rating scale 0-100
# Description: as §2, §3, §4, §5, §6
# [9] = tested on: field corn (Zea mays L., var. Dekalb 535, CORN); assay: Pre-emerge test, crop safety; conditions: pre-emerge, 14 days after application, rating scale 0-100
# Summary of the method: (§7)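 Compounds in acetone were track-sprayed at 15-1000 g ai/ha (187 l/ha) on sandy loam pots: pre-emerge one day after seeding, post-emerge at 2-3 leaf stage with 0.25% v/v non-ionic surfactant. Phytotoxicity was rated 14 days later on a 0 (no damage) to 100 (complete death) scale.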
# [10] = tested on: upland rice (Oryza sp., var. Tebonnet, RICE); assay: Pre-emerge test, crop safety; conditions: pre-emerge, 14 days after application, rating scale 0-100
# Summary of the method: as §7
# [11] = tested on: barnyardgrass (Echinochloa crus-galli, ECHCG); assay: Post-emerge test, greenhouse herbicide activity screening; conditions: post-emerge, 14 days after application, rating scale 0-100
# Description: as §2, §3, §4, §5, §6
# [12] = tested on: green foxtail (Setaria viridis, SETVI); assay: as above; conditions: post-emerge, 14 days after application, rating scale 0-100
# Description: as §2, §3, §4, §5, §6
# [13] = tested on: ivyleaf morningglory (Ipomoea hederacea, IPOHE); assay: as above; conditions: post-emerge, 14 days after application, rating scale 0-100
# Description: as §2, §3, §4, §5, §6
# [14] = tested on: lambsquarters (Chenopodium album, CHEAL); assay: as above; conditions: post-emerge, 14 days after application, rating scale 0-100
# Description: as §2, §3, §4, §5, §6
# [15] = tested on: large crabgrass (Digitaria sanguinalis, DIGSA); assay: as above; conditions: post-emerge, 14 days after application, rating scale 0-100
# Description: as §2, §3, §4, §5, §6
# [16] = tested on: redroot pigweed (Amaranthus retroflexus, AMARE); assay: as above; conditions: post-emerge, 14 days after application
# Description: as §2, §3, §4, §5, §6
# [17] = tested on: sicklepod (Cassia obtusifolia, CASOB); assay: as above; conditions: post-emerge, 14 days after application, rating scale 0-100
# Description: as §2, §3, §4, §5, §6
# [18] = tested on: velvetleaf (Abutilon theophrasti, ABUTH); assay: as above; conditions: post-emerge, 14 days after application, rating scale 0-100
# Description: as §2, §3, §4, §5, §6
# [19] = tested on: field corn (Zea mays L., var. Dekalb 535, CORN); assay: Post-emerge test, crop safety; conditions: post-emerge, 14 days after application, rating scale 0-100
# Summary of the method: as §1
# [20] = tested on: upland rice (Oryza sp., var. Tebonnet, RICE); assay: Post-emerge test, crop safety; conditions: post-emerge, 14 days after application, rating scale 0-100
# Summary of the method: as §1
# [21] = 63 g ai/ha, rating scale 0-100 (0 no damage, 100 complete death)
# [22] = 250 g ai/ha, rating scale 0-100
Compound,phytotoxicity rating AMARE ([1]; 63 g ai/ha),phytotoxicity rating AMARE ([1]; 250 g ai/ha),phytotoxicity rating ECHCG ([2]; 63 g ai/ha),phytotoxicity rating ECHCG ([2]; 250 g ai/ha),phytotoxicity rating SETVI ([3]; 63 g ai/ha),phytotoxicity rating SETVI ([3]; 250 g ai/ha),phytotoxicity rating IPOHE ([4]; 63 g ai/ha),phytotoxicity rating IPOHE ([4]; 250 g ai/ha),phytotoxicity rating CHEAL ([5]; 63 g ai/ha),phytotoxicity rating CHEAL ([5]; 250 g ai/ha),phytotoxicity rating DIGSA ([6]; 63 g ai/ha),phytotoxicity rating DIGSA ([6]; 250 g ai/ha),phytotoxicity rating CASOB ([7]; 63 g ai/ha),phytotoxicity rating CASOB ([7]; 250 g ai/ha),phytotoxicity rating ABUTH ([8]; 63 g ai/ha),phytotoxicity rating ABUTH ([8]; 250 g ai/ha),phytotoxicity rating CORN ([9]; 63 g ai/ha),phytotoxicity rating CORN ([9]; 250 g ai/ha),phytotoxicity rating RICE ([10]; 63 g ai/ha),phytotoxicity rating RICE ([10]; 250 g ai/ha),further results
COc1c(Cl)cc(F)c(-n2c(=O)cc(C(F)(F)F)n(C)c2=O)c1NNC(=O)c1ccc2ccccc2c1 [15-5],100,100,70,99,100,100,100,100,100,100,100,100,100,100,100,100,80,99,70,99,"Post-emerge Herbicidal Activity ECHCG (phytotoxicity rating) ([11]; 63 g ai/ha): 40; Post-emerge Herbicidal Activity ECHCG (phytotoxicity rating) ([11]; 250 g ai/ha): 90; Post-emerge Herbicidal Activity SETVI (phytotoxicity rating) ([12]; 63 g ai/ha): 40; Post-emerge Herbicidal Activity SETVI (phytotoxicity rating) ([12]; 250 g ai/ha): 80; Post-emerge Herbicidal Activity IPOHE (phytotoxicity rating) ([13]; 63 g ai/ha): 90; Post-emerge Herbicidal Activity IPOHE (phytotoxicity rating) ([13]; 250 g ai/ha): 100; Post-emerge Herbicidal Activity CHEAL (phytotoxicity rating) ([14]; 63 g ai/ha): 100; Post-emerge Herbicidal Activity CHEAL (phytotoxicity rating) ([14]; 250 g ai/ha): 100; Post-emerge Herbicidal Activity DIGSA (phytotoxicity rating) ([15]; 63 g ai/ha): 30; Post-emerge Herbicidal Activity DIGSA (phytotoxicity rating) ([15]; 250 g ai/ha): 70; Post-emerge Herbicidal Activity AMARE (phytotoxicity rating) [16, 21]: 70; Post-emerge Herbicidal Activity AMARE (phytotoxicity rating) [16, 22]: 100; Post-emerge Herbicidal Activity CASOB (phytotoxicity rating) ([17]; 63 g ai/ha): 40; Post-emerge Herbicidal Activity CASOB (phytotoxicity rating) ([17]; 250 g ai/ha): 80; Post-emerge Herbicidal Activity ABUTH (phytotoxicity rating) ([18]; 63 g ai/ha): 100; Post-emerge Herbicidal Activity ABUTH (phytotoxicity rating) ([18]; 250 g ai/ha): 100; Post-emerge Herbicidal Activity CORN (crop damage rating) ([19]; 63 g ai/ha): 70; Post-emerge Herbicidal Activity CORN (crop damage rating) ([19]; 250 g ai/ha): 90; Post-emerge Herbicidal Activity RICE (crop damage rating) ([20]; 63 g ai/ha): 60; Post-emerge Herbicidal Activity RICE (crop damage rating) ([20]; 250 g ai/ha): 90"
COc1c(Cl)cc(F)c(-n2c(=O)cc(C(F)(F)F)n(C)c2=O)c1NNC(=O)Nc1ccc(F)cc1F [15-8],60,100,0,40,20,0,0,70,60,100,30,100,20,80,40,100,0,90,15,90,"Post-emerge Herbicidal Activity ECHCG (phytotoxicity rating) ([11]; 63 g ai/ha): 0; Post-emerge Herbicidal Activity ECHCG (phytotoxicity rating) ([11]; 250 g ai/ha): 20; Post-emerge Herbicidal Activity SETVI (phytotoxicity rating) ([12]; 63 g ai/ha): 0; Post-emerge Herbicidal Activity SETVI (phytotoxicity rating) ([12]; 250 g ai/ha): 30; Post-emerge Herbicidal Activity IPOHE (phytotoxicity rating) ([13]; 63 g ai/ha): 50; Post-emerge Herbicidal Activity IPOHE (phytotoxicity rating) ([13]; 250 g ai/ha): 90; Post-emerge Herbicidal Activity CHEAL (phytotoxicity rating) ([14]; 63 g ai/ha): 95; Post-emerge Herbicidal Activity CHEAL (phytotoxicity rating) ([14]; 250 g ai/ha): 90; Post-emerge Herbicidal Activity DIGSA (phytotoxicity rating) ([15]; 63 g ai/ha): 0; Post-emerge Herbicidal Activity DIGSA (phytotoxicity rating) ([15]; 250 g ai/ha): 0; Post-emerge Herbicidal Activity AMARE (phytotoxicity rating) [16, 21]: 20; Post-emerge Herbicidal Activity AMARE (phytotoxicity rating) [16, 22]: 60; Post-emerge Herbicidal Activity CASOB (phytotoxicity rating) ([17]; 63 g ai/ha): 0; Post-emerge Herbicidal Activity CASOB (phytotoxicity rating) ([17]; 250 g ai/ha): 40; Post-emerge Herbicidal Activity ABUTH (phytotoxicity rating) ([18]; 63 g ai/ha): 70; Post-emerge Herbicidal Activity ABUTH (phytotoxicity rating) ([18]; 250 g ai/ha): 100; Post-emerge Herbicidal Activity CORN (crop damage rating) ([19]; 63 g ai/ha): 0; Post-emerge Herbicidal Activity CORN (crop damage rating) ([19]; 250 g ai/ha): 55; Post-emerge Herbicidal Activity RICE (crop damage rating) ([20]; 63 g ai/ha): 10; Post-emerge Herbicidal Activity RICE (crop damage rating) ([20]; 250 g ai/ha): 60"

# Source: patent US6355799B1, “Substituted benzene compounds, process for their preparation, and herbicidal and defoliant compositions containing them” (ISK Americas Incorporated, priority 1997, dated 2002)
